System: transgenic maize plants
Assay: Detection of the herbicide tolerance of the transgenic maize plants
Type: in vivo
Conditions: for The grade of pesticide damage/plant: 0 / The grade of pesticide damage/plant: 1 / The grade of pesticide damage/plant: 2 / The grade of pesticide damage/plant: 3: 7 DAT
Source text: The transformed Arabidopsis thaliana T1 plants were initially selected using glufosinate herbicide. The Arabidopsis thaliana T1 plants (PPOA-01) into which the PPOA-01 nucleotide sequence was introduced, the Arabidopsis thaliana T1 plants (PPOB-01) into which the PPOB-01 nucleotide sequence was introduced, the Arabidopsis thaliana T1 plants (PPOC-01) into which the PPOC-01 nucleotide sequence was introduced, the Arabidopsis thaliana T1 plants (PPOD-01) into which the PPOD-01 nucleotide sequence was introduced, the Arabidopsis thaliana T1 plants (PPOE-01) into which the PPOE-01 nucleotide sequence was introduced, the Arabidopsis thaliana T1 plants (PPOF-01) into which the PPOF-01 nucleotide sequence was introduced, the Arabidopsis thaliana T1 plants (PPO-AP-01) into which the PPO-AP-01 nucleotide sequence was introduced, and the Arabidopsis thaliana T1 plants (control vector) into which the control vector was introduced, the wild-type Arabidopsis thaliana plants (CK) (with 24 plants being included in each genotype) (18 days after sowing) were sprayed with saflufenacil at three concentrations (25 g ai/ha (one-fold field concentration, 1×), 100 g ai/ha (four-fold field concentration, 4×), and 0 g ai/ha (water, 0×)), oxyfluorfen at three concentrations (180 g ai/ha (one-fold field concentration, 1×), 720 g ai/ha (four-fold field concentration, 4×), and 0 g ai/ha (water, 0×)), and flumioxazin at three concentrations (60 g ai/ha (one-fold field concentration, 1×), 240 g ai/ha (four-fold field concentration, 4×), and 0 g ai/ha (water, 0×) to determine the tolerance of Arabidopsis thaliana to the herbicides. After 7 days of spraying (7 DAT), the damage level of each plant caused by the herbicide was evaluated according to the average of the damage levels (%) of plants (the average of the damage levels (%) of plants=the injured leaf area/the total leaf area×100%), i.e., the grade of pesticide damage: grade 0 means that the growth status of plants is essentially consistent with those sprayed with the blank solvent (water); grade 1 means that the average of the damage levels of plants is less than 10%; grade 2 means that the average of the damage levels of plants is greater than 10%; and grade 3 means that the average of the damage levels of plants is 100%. The plants having a growth status falling within grades 0 and 1 are classified as highly resistant plants; those having a growth status falling within grade 2 are classified as poorly resistant plants; and those having a growth status falling within grade 3 are classified as non-resistant plants.
The maize plants into which the PPOA-02 nucleotide sequence was introduced, the maize plants into which the PPOB-02 nucleotide sequence was introduced, the maize plants into which the PPOC-02 nucleotide sequence was introduced, the maize plants into which the PPOD-02 nucleotide sequence was introduced, the maize plants into which the PPOE-02 nucleotide sequence was introduced, the maize plants into which the PPOF-02 nucleotide sequence was introduced, the maize plants into which the PPO-AP-02 nucleotide sequence was introduced, the maize plants (control vector) into which the control vector was introduced, and the wild-type maize plants (CK) (with 16 plants being included in each genotype) (18 days after sowing) were taken and sprayed with saflufenacil at three concentrations (50 g ai/ha (two-fold field concentration, 2×), 100 g ai/ha (four-fold field concentration, 4×), and 0 g ai/ha (water, 0×)), oxyfluorfen at three concentrations (360 g ai/ha (two-fold field concentration, 2×), 720 g ai/ha (four-fold field concentration, 4×), and 0 g ai/ha (water, 0×), and flumioxazin at three concentrations (120 g ai/ha (two-fold field concentration, 2×), 240 g ai/ha (four-fold field concentration, 4×), and 0 g ai/ha (water, 0×) to determine the tolerance of maize plants to the herbicides. […]

[1] = genotype Control vector, 360 g ai/ha
[2] = genotype Control vector, 720 g ai/ha
[3] = genotype PPO-AP-02, 360 g ai/ha
[4] = genotype PPO-AP-02, 720 g ai/ha

CCOc1cc(Oc2ccc(C(F)(F)F)cc2Cl)ccc1[N+](=O)[O-] [oxyfluorfen, 2-chloro-1-(3-ethoxy-4-nitrophenoxy)-4-trifluoromethylbenzene]
The grade of pesticide damage/plant: 0 (genotype CK, 360 g ai/ha): 0 plant | The grade of pesticide damage/plant: 1 (genotype CK, 360 g ai/ha): 0 plant | The grade of pesticide damage/plant: 2 (genotype CK, 360 g ai/ha): 0 plant | The grade of pesticide damage/plant: 3 (genotype CK, 360 g ai/ha): 16 plant | The grade of pesticide damage/plant: 0 (genotype CK, 720 g ai/ha): 0 plant | The grade of pesticide damage/plant: 1 (genotype CK, 720 g ai/ha): 0 plant | The grade of pesticide damage/plant: 2 (genotype CK, 720 g ai/ha): 0 plant | The grade of pesticide damage/plant: 3 (genotype CK, 720 g ai/ha): 16 plant | The grade of pesticide damage/plant: 0 [1]: 0 plant | The grade of pesticide damage/plant: 1 [1]: 0 plant | The grade of pesticide damage/plant: 2 [1]: 0 plant | The grade of pesticide damage/plant: 3 [1]: 16 plant | The grade of pesticide damage/plant: 0 [2]: 0 plant | The grade of pesticide damage/plant: 1 [2]: 0 plant | The grade of pesticide damage/plant: 2 [2]: 0 plant | The grade of pesticide damage/plant: 3 [2]: 16 plant | The grade of pesticide damage/plant: 0 [3]: 0 plant | The grade of pesticide damage/plant: 1 [3]: 0 plant | The grade of pesticide damage/plant: 2 [3]: 8 plant | The grade of pesticide damage/plant: 3 [3]: 8 plant | The grade of pesticide damage/plant: 0 [4]: 0 plant | The grade of pesticide damage/plant: 1 [4]: 0 plant | The grade of pesticide damage/plant: 2 [4]: 0 plant | The grade of pesticide damage/plant: 3 [4]: 16 plant | tolerance to the herbicide (in words) (genotype PPO-AP-02, four-fold field concentration): no tolerance | share of the plants that exhibited no tolerance (genotype PPO-AP-02, two-fold field concentration): about 50% | The grade of pesticide damage/plant: 0 (genotype PPOA-02, 360 g ai/ha): 16 plant | The grade of pesticide damage/plant: 1 (genotype PPOA-02, 360 g ai/ha): 0 plant | The grade of pesticide damage/plant: 2 (genotype PPOA-02, 360 g ai/ha): 0 plant | The grade of pesticide damage/plant: 3 (genotype PPOA-02, 360 g ai/ha): 0 plant | The grade of pesticide damage/plant: 0 (genotype PPOA-02, 720 g ai/ha): 16 plant | The grade of pesticide damage/plant: 1 (genotype PPOA-02, 720 g ai/ha): 0 plant | The grade of pesticide damage/plant: 2 (genotype PPOA-02, 720 g ai/ha): 0 plant | The grade of pesticide damage/plant: 3 (genotype PPOA-02, 720 g ai/ha): 0 plant | The grade of pesticide damage/plant: 0 (genotype PPOB-02, 360 g ai/ha): 16 plant | The grade of pesticide damage/plant: 1 (genotype PPOB-02, 360 g ai/ha): 0 plant | The grade of pesticide damage/plant: 2 (genotype PPOB-02, 360 g ai/ha): 0 plant | The grade of pesticide damage/plant: 3 (genotype PPOB-02, 360 g ai/ha): 0 plant | The grade of pesticide damage/plant: 0 (genotype PPOB-02, 720 g ai/ha): 16 plant | The grade of pesticide damage/plant: 1 (genotype PPOB-02, 720 g ai/ha): 0 plant | The grade of pesticide damage/plant: 2 (genotype PPOB-02, 720 g ai/ha): 0 plant | The grade of pesticide damage/plant: 3 (genotype PPOB-02, 720 g ai/ha): 0 plant | The grade of pesticide damage/plant: 0 (genotype PPOC-02, 360 g ai/ha): 16 plant | The grade of pesticide damage/plant: 1 (genotype PPOC-02, 360 g ai/ha): 0 plant | The grade of pesticide damage/plant: 2 (genotype PPOC-02, 360 g ai/ha): 0 plant | The grade of pesticide damage/plant: 3 (genotype PPOC-02, 360 g ai/ha): 0 plant | The grade of pesticide damage/plant: 0 (genotype PPOC-02, 720 g ai/ha): 16 plant | The grade of pesticide damage/plant: 1 (genotype PPOC-02, 720 g ai/ha): 0 plant | The grade of pesticide damage/plant: 2 (genotype PPOC-02, 720 g ai/ha): 0 plant | The grade of pesticide damage/plant: 3 (genotype PPOC-02, 720 g ai/ha): 0 plant | The grade of pesticide damage/plant: 0 (genotype PPOD-02, 360 g ai/ha): 16 plant | The grade of pesticide damage/plant: 1 (genotype PPOD-02, 360 g ai/ha): 0 plant | The grade of pesticide damage/plant: 2 (genotype PPOD-02, 360 g ai/ha): 0 plant | The grade of pesticide damage/plant: 3 (genotype PPOD-02, 360 g ai/ha): 0 plant | The grade of pesticide damage/plant: 0 (genotype PPOD-02, 720 g ai/ha): 16 plant | The grade of pesticide damage/plant: 1 (genotype PPOD-02, 720 g ai/ha): 0 plant | The grade of pesticide damage/plant: 2 (genotype PPOD-02, 720 g ai/ha): 0 plant | The grade of pesticide damage/plant: 3 (genotype PPOD-02, 720 g ai/ha): 0 plant | The grade of pesticide damage/plant: 0 (genotype PPOE-02, 360 g ai/ha): 16 plant | The grade of pesticide damage/plant: 1 (genotype PPOE-02, 360 g ai/ha): 0 plant | The grade of pesticide damage/plant: 2 (genotype PPOE-02, 360 g ai/ha): 0 plant | The grade of pesticide damage/plant: 3 (genotype PPOE-02, 360 g ai/ha): 0 plant | The grade of pesticide damage/plant: 0 (genotype PPOE-02, 720 g ai/ha): 15 plant | The grade of pesticide damage/plant: 1 (genotype PPOE-02, 720 g ai/ha): 1 plant | The grade of pesticide damage/plant: 2 (genotype PPOE-02, 720 g ai/ha): 0 plant | The grade of pesticide damage/plant: 3 (genotype PPOE-02, 720 g ai/ha): 0 plant | The grade of pesticide damage/plant: 0 (genotype PPOF-02, 360 g ai/ha): 16 plant | The grade of pesticide damage/plant: 1 (genotype PPOF-02, 360 g ai/ha): 0 plant | The grade of pesticide damage/plant: 2 (genotype PPOF-02, 360 g ai/ha): 0 plant | The grade of pesticide damage/plant: 3 (genotype PPOF-02, 360 g ai/ha): 0 plant | The grade of pesticide damage/plant: 0 (genotype PPOF-02, 720 g ai/ha): 16 plant | The grade of pesticide damage/plant: 1 (genotype PPOF-02, 720 g ai/ha): 0 plant | The grade of pesticide damage/plant: 2 (genotype PPOF-02, 720 g ai/ha): 0 plant | The grade of pesticide damage/plant: 3 (genotype PPOF-02, 720 g ai/ha): 0 plant | tolerance to the herbicide (in words) (genotypes PPOA-02 to PPOF-02, four-fold field concentration): high-resistant tolerance | tolerance to the herbicide (in words) (genotypes PPOA-02 to PPOF-02, two-fold field concentration): high-resistant tolerance
